Experimental data published in US9109041B2, “Analog compounds of analgesic peptides derived from the venom of crotalus durissus terrificus snakes, their uses, compositions, methods of preparation and purification” (priority 2004, dated 2015).

Tested on: thermal nociception (hot plate 50° C.)
Experiment: hot plate test
Assay type: in vivo, mice
Conditions: for latency time (reaction time), FM (s) ± S.E.M.: 2 hours after treatment; for latency time (reaction time), IM (s) ± S.E.M.: before treatment
Protocol: This test is used for evaluation of drugs that interfere with nociception in the Central Nervous System, as for example, morphine and derived products, since the thermal stimulus activates directly the nociceptor, avoiding tissue lesion and consequent inflammation. The data obtained in this test indicate that the antinociceptive effect of a compound is mainly due to a supraspinally integrated response.
This test was performed in accordance to the method described by Jacob, J. J. C. and Ramabadran, K. (Br. J. Pharmacol., 64:91-8, 1978). For this test, mice were placed on a metal surface kept at 50° C.±1. Results are expressed as the latency time (in seconds—s) to observe the licking of both anterior feet (reaction time). This test was applied before (initial measurement—IM) and 2 hours after the treatment of the animals (final measurement—FM) with saline (control) or with the synthetic peptide (1 and 3 μg/kg in 200 μl), orally. Each animal was considered as their own control. The results were analyzed comparing the mean values of the IM and FM or, when determined, by comparing the mean values obtained in the different experimental groups (Table 22).

For “Xaa-Phe-Ser-Pro-Glu-Asn-Cys-Gln-Gly-Glu-Ser-Gln-Pro-Cys [SEQ ID NO: 2]”, the “latency time (reaction time), FM (s) ± S.E.M.” value (1 μg/kg p.o.) was 25 ± 0.68 s, the “latency time (reaction time), IM (s) ± S.E.M.” value (1 μg/kg p.o.) was 18 ± 0.64 s and the “latency time (reaction time), FM (s) ± S.E.M.” value (3 μg/kg p.o.) was 27 ± 1.06 s. The “latency time (reaction time), IM (s) ± S.E.M.” value (3 μg/kg p.o.) was 22 ± 1.01 s.
